Experimental data published in the NIST ThermoML archive (doi:10.1021/je101178u).
Several values for one entry are separate records, joined by “and”; a condition that tells them apart may be missing. Identical values can stand only once.

Details: Fluid (supercritical or subcritical phases); for mass density: Buoyancy - hydrostatic balance with magnetic suspension - one sinker; for viscosity: vibrating wire

CC [ethane]
Details | mass density, 293.15 K | mass density, 307.15 K [kg/m3] | viscosity, 293.15 K | viscosity, 307.15 K
64.37 kPa | 0.79811 kg/m3 | – | 0.009075 mPa·s and 0.009074 mPa·s | –
80.37 kPa | 0.99778 kg/m3 | – | 0.009076 mPa·s | –
80.42 kPa | 0.99851 kg/m3 | – | 0.009075 mPa·s | –
80.48 kPa | 0.99923 kg/m3 | – | 0.009073 mPa·s | –
92.55 kPa | – | 1.0967 | – | 0.009492 mPa·s
92.62 kPa | – | 1.0975 | – | 0.009489 mPa·s
97.81 kPa | – | 1.1594 | – | 0.009507 mPa·s and 0.009508 mPa·s
160.1 kPa | 2.0005 kg/m3 | – | 0.009083 mPa·s and 0.009082 mPa·s | –
160.16 kPa | 2.0012 kg/m3 | – | 0.009082 mPa·s | –
160.18 kPa | – | 1.907 | – | 0.00951 mPa·s and 0.009508 mPa·s
166.71 kPa | – | 1.9856 | – | 0.009531 mPa·s
166.77 kPa | – | 1.9863 | – | 0.009529 mPa·s
315.97 kPa | 3.9991 kg/m3 | – | 0.009102 mPa·s | –
316.05 kPa | 4.0002 kg/m3 | – | 0.009098 mPa·s and 0.009099 mPa·s | –
327.38 kPa | – | 3.9439 | – | 0.009566 mPa·s
332.45 kPa | – | 4.0065 | – | 0.009542 mPa·s and 0.009543 mPa·s
467.91 kPa | 5.9992 kg/m3 | – | 0.009118 mPa·s | –
467.96 kPa | 5.9999 kg/m3 | – | 0.009119 mPa·s | –
468.01 kPa | 6.0006 kg/m3 | – | 0.009118 mPa·s | –
493.91 kPa | – | 6.0228 | – | 0.009573 mPa·s
493.97 kPa | – | 6.0235 | – | 0.009572 mPa·s
615.93 kPa | 8.0004 kg/m3 | – | 0.009139 mPa·s and 0.009137 mPa·s | –
616.03 kPa | 8.0018 kg/m3 | – | 0.009137 mPa·s | –
649.95 kPa | – | 8.0188 | – | 0.009604 mPa·s
650.01 kPa | – | 8.0195 | – | 0.009604 mPa·s
759.69 kPa | 9.9972 kg/m3 | – | 0.009162 mPa·s and 0.009165 mPa·s | –
788.48 kPa | – | 9.8322 | – | 0.009663 mPa·s
788.7 kPa | – | 9.8351 | – | 0.009665 mPa·s
800.35 kPa | – | 9.9895 | – | 0.009635 mPa·s
800.41 kPa | – | 9.9903 | – | 0.009639 mPa·s and 0.009636 mPa·s
889.73 kPa | 11.852 kg/m3 | – | 0.009183 mPa·s and 0.009184 mPa·s | –
889.87 kPa | 11.854 kg/m3 | – | 0.009183 mPa·s | –
959.13 kPa | – | 12.123 | – | 0.009675 mPa·s
959.2 kPa | – | 12.124 | – | 0.009674 mPa·s
1036.2 kPa | 14.001 kg/m3 | – | 0.009212 mPa·s and 0.009213 mPa·s | –
1036.3 kPa | 14.002 kg/m3 | – | 0.009213 mPa·s | –
1094.4 kPa | – | 13.987 | – | 0.009709 mPa·s
1094.5 kPa | – | 13.988 | – | 0.00971 mPa·s
1167.2 kPa | 15.979 kg/m3 | – | 0.009246 mPa·s | –
1167.3 kPa | 15.98 kg/m3 and 15.981 kg/m3 | – | 0.009243 mPa·s | –
1233.8 kPa | – | 15.953 | – | 0.009746 mPa·s
1233.9 kPa | – | 15.955 | – | 0.009746 mPa·s
1293.6 kPa | 17.943 kg/m3 | – | 0.009274 mPa·s | –
1293.8 kPa | 17.946 kg/m3 | – | 0.009275 mPa·s | –
1343.4 kPa | – | 17.536 | – | 0.009778 mPa·s
1420.8 kPa | 19.979 kg/m3 | – | 0.009305 mPa·s and 0.009308 mPa·s | –
1421 kPa | 19.983 kg/m3 | – | 0.00931 mPa·s | –
1469.3 kPa | – | 19.394 | – | 0.009855 mPa·s
1469.5 kPa | – | 19.396 | – | 0.009856 mPa·s
1502.4 kPa | – | 19.889 | – | 0.00983 mPa·s and 0.009828 mPa·s
1992.4 kPa | 30.002 kg/m3 | – | 0.009506 mPa·s | –
1992.5 kPa | 30.004 kg/m3 | – | 0.009506 mPa·s | –
1992.6 kPa | 30.006 kg/m3 | – | 0.009505 mPa·s | –
2477.2 kPa | 40.017 kg/m3 | – | 0.009749 mPa·s | –
2477.4 kPa | 40.022 kg/m3 | – | 0.009748 mPa·s | –
2477.6 kPa | 40.026 kg/m3 | – | 0.009748 mPa·s | –
2879.7 kPa | 49.983 kg/m3 | – | 0.01003 mPa·s | –
2879.9 kPa | 49.988 kg/m3 | – | 0.01003 mPa·s | –
3212.1 kPa | 60.071 kg/m3 | – | 0.01036 mPa·s | –
3212.2 kPa | 60.073 kg/m3 | – | 0.01036 mPa·s | –
3212.3 kPa | 60.079 kg/m3 | – | 0.01036 mPa·s | –
3471.9 kPa | 70.014 kg/m3 | – | 0.01073 mPa·s | –
3472 kPa | 70.02 kg/m3 | – | 0.01073 mPa·s | –
3472.2 kPa | 70.027 kg/m3 | – | 0.01073 mPa·s | –
3577.6 kPa | 74.947 kg/m3 | – | 0.01093 mPa·s | –
3577.8 kPa | 74.957 kg/m3 | – | 0.01092 mPa·s | –
